Values after ≈ are worked out from the molar mass of the structure shown.
How the values were obtained:
Assay type in all cases: functional
[1] = Cytotoxicity against mouse P388 cells assessed as growth inhibition after 48 hrs by coulter particle counting method; conditions: P388, 48 h, read-out: ED50 (the source's name)
[2] = Cytotoxicity against human BxPC3 cells assessed as growth inhibition after 48 hrs by sulforhodamine B assay; conditions: BXPC-3, 48 h
[3] = Cytotoxicity against human MCF7 cells assessed as growth inhibition after 48 hrs by sulforhodamine B assay; conditions: MCF7, 48 h
[4] = Cytotoxicity against human SF268 cells assessed as growth inhibition after 48 hrs by sulforhodamine B assay; conditions: SF-268, 48 h
[5] = Cytotoxicity against human NCI-H460 cells assessed as growth inhibition after 48 hrs by sulforhodamine B assay; conditions: NCI-H460, 48 h
[6] = Cytotoxicity against human KM20L2 cells assessed as growth inhibition after 48 hrs by sulforhodamine B assay; conditions: KM-20L2, 48 h
[7] = Cytotoxicity against human DU145 cells assessed as growth inhibition after 48 hrs by sulforhodamine B assay; conditions: DU-145, 48 h

C[C@H](C/C=C/C(C)(C)O)[C@H]1CC[C@@]2(C)C3=C(CC[C@]12C)[C@@]1(C)CC[C@H](O)C(C)(C)[C@@H]1CC3
EC50 [1]: > 10 µg/mL
GI50 [2]: 1.8 µg/mL (≈ 4.07 µM)
GI50 [3]: 2 µg/mL (≈ 4.52 µM)
GI50 [4]: 1.9 µg/mL (≈ 4.29 µM)
GI50 [5]: 1.9 µg/mL (≈ 4.29 µM)
GI50 [6]: 1.8 µg/mL (≈ 4.07 µM)
GI50 [7]: 1.9 µg/mL (≈ 4.29 µM)

C=C(C)[C@@H](O)CC[C@H](C)[C@@H]1CC=C2[C@]3(C)CC[C@H]4C(C)(C)[C@@H](O)CC[C@]4(C)[C@H]3CC[C@]21C
EC50 [1]: > 10 µg/mL
GI50 [2]: 0.83 µg/mL (≈ 1.87 µM)
GI50 [3]: 0.79 µg/mL (≈ 1.78 µM)
GI50 [4]: 0.33 µg/mL (≈ 0.745 µM)
GI50 [5]: 0.91 µg/mL (≈ 2.06 µM)
GI50 [6]: 0.71 µg/mL (≈ 1.6 µM)
GI50 [7]: 0.65 µg/mL (≈ 1.47 µM)

C=C(C)C(O)CC[C@@H](C)[C@@H]1CC[C@]2(C)C3=C(CC[C@@]12C)[C@@]1(C)CC[C@H](O)C(C)(C)[C@@H]1CC3 (some centres not stated)
EC50 [1]: > 10 µg/mL
GI50 [2]: 1.5 µg/mL (≈ 3.39 µM)
GI50 [3]: 2.5 µg/mL (≈ 5.65 µM)
GI50 [4]: 1.4 µg/mL (≈ 3.16 µM)
GI50 [5]: 1.7 µg/mL (≈ 3.84 µM)
GI50 [6]: 7 µg/mL (≈ 15.8 µM)
GI50 [7]: 1.5 µg/mL (≈ 3.39 µM)

C=C(C)[C@H](O)CC[C@H](C)[C@@H]1CC=C2[C@]3(C)CC[C@H]4C(C)(C)[C@@H](O)CC[C@]4(C)[C@H]3CC[C@]21C
EC50 [1]: > 10 µg/mL
GI50 [2]: 0.2 µg/mL (≈ 0.452 µM)
GI50 [3]: 0.68 µg/mL (≈ 1.54 µM)
GI50 [4]: 0.36 µg/mL (≈ 0.813 µM)
GI50 [5]: 0.19 µg/mL (≈ 0.429 µM)
GI50 [6]: > 1 µg/mL
GI50 [7]: 0.58 µg/mL (≈ 1.31 µM)

C[C@H](C/C=C/C(C)(C)O)[C@@H]1CC[C@]2(C)C3=C(CC[C@@]12C)[C@@]1(C)CC[C@H](O)C(C)(C)[C@@H]1CC3
EC50 [1]: > 10 µg/mL
GI50 [2]: 1.8 µg/mL (≈ 4.07 µM)
GI50 [3]: 2.1 µg/mL (≈ 4.74 µM)
GI50 [4]: 2.2 µg/mL (≈ 4.97 µM)
GI50 [5]: 1.9 µg/mL (≈ 4.29 µM)
GI50 [6]: 2 µg/mL (≈ 4.52 µM)
GI50 [7]: 1.9 µg/mL (≈ 4.29 µM)

C[C@@H](C/C=C/C(C)(C)O)[C@H]1CC[C@@]2(C)C3=C(C(=O)C[C@@]12C)[C@@]1(C)CC[C@H](O)C(C)(C)[C@@H]1CC3
EC50 [1]: > 10 µg/mL
GI50 [2]: > 1 µg/mL
GI50 [3]: > 1 µg/mL
GI50 [4]: > 1 µg/mL
GI50 [5]: > 1 µg/mL
GI50 [6]: > 1 µg/mL
GI50 [7]: > 1 µg/mL
